Experimental data published in paper PMC10011573, “Development of novel broad-spectrum antimicrobial lipopeptides derived from plantaricin NC8 β” (Scientific Reports, 2023).
Where two headings read alike, the source gives them in different places. Residues, ends and D or L forms follow the SMILES beside them. No end group written: not given here. *: point of attachment. Pentadecanoyl = CCCCCCCCCCCCCCC(=O)*; Decanoyl = CCCCCCCCCC(=O)*; Octanoyl = CCCCCCCC(=O)*; Butyryl = CCCC(=O)*

Legend:
[1] = tested on: E. coli (K-12 MG1655)
Experimental: (§1) S. aureus (ATCC 29213, MSSA, ATCC, Manassas, VA), E. coli (K-12 MG1655) and clinical isolates of S. aureus, E. coli, E. faecium, K. pneumoniae, A. baumannii, P. aeruginosa and E. cloacae obtained from the Department of Laboratory Medicine at Örebro University Hospital were streaked on Luria–Bertani (LB) agar plates and incubated at 37 °C overnight. Single colonies were inoculated into 5 ml of LB broth and incubated on a shaker (400 rpm) at 37 °C overnight. The bacterial concentrations were determined by viable count and were adjusted to correlate with approximately 10^9 CFU/ml.
(§2) The broth microdilution method was used to determine minimal inhibitory concentration (MIC) and minimal bactericidal concentration (MBC), in accordance with the EUCAST standards for the broth microdilution method. Two-fold serial dilutions of the lipopeptides were used, and the final concentrations ranged from 0.19 to 100 µM. In brief, two-fold serial dilutions of the lipopeptides were performed in a 96-well plate in PBS, with a final volume of 100 µl per well, after which 100 µl of LB-broth media containing approximately 5 × 10^5 CFU/ml of bacteria was added to each well. The plate was then incubated for 20 h in 37 °C on a shaker (400 rpm). The effect of lipopeptide-antibiotic combinations was investigated by performing checkerboard assays. The assays were performed in accordance with the MIC and MBC tests conducted above, but with horizontal and longitudinal two-fold serial dilutions of the tested compounds. […] The fractional inhibitory concentration (FIC) and fractional bactericidal concentration (FBC) were calculated by the equation (MIC or MBC of peptide in combination/MIC or MBC of peptide alone) + (MIC or MBC of antibiotic in combination/MIC or MBC of antibiotic alone). Synergy was defined as FIC/FBC ≤ 0.5, additive when 0.5 < FIC/FBC ≤ 1, indifferent when 1 < FIC/FBC < 2 and antagonistic when FIC/FBC ≥ 2. All experiments were repeated at least three times.

[2] = tested on: S. aureus (ATCC 29213, MSSA)
Experimental: as §1, §2

[3] = Carboxyfluorescein release assay, bacterial liposome model; type: biochemical; conditions: for EC50: 75:25 POPC:POPG liposomes, 25 µM lipid, 10 mM PBS pH 7.4, 10^–5–10^2 µM peptide, 60 min, fluorescence, Hill fit, n = 3, read-out: EC50 Bacterial (concentration that triggers 50% CF release)
Experimental: (§3) Liposomes were prepared by thin-film hydration method. Lipids stock solutions (10 mg/ml in chloroform, Avanti Polar Lipids, Inc., Alabaster, United States) of the lipids 1-palmitoyl-2-oleoyl-sn-glycero-3-phosphocholine (POPC), 1-palmitoyl-2-oleoyl-sn-glycero-3-phospho-L-serine (POPS), 1-Hexadecanoyl-2-(9Z-Octadecenoyl)-sn-Glycero-3-Phosphoglycerol (POPG) and Cholesterol (Chol) were employed. Bacterial liposomes were prepared with a 75:25 ratio of POPC:POPG and mammalian liposomes were prepared with a 65:5:30 ratio of POPC:POPS:Chol. Lipid solutions were thoroughly homogenised, and the solvent was evaporated with the use of a dry N2 steam to yield a lipid cake. […] The lipid film was subsequently hydrated with a 5(6)-CF solution (50 mM CF, 10 mM PBS, 90 mM NaCl, pH 7.4). Following a 10 min incubation on orbital shaker (50 min^−1), the solution was vortexed for 60 s on medium speed. A mini extruder (Avanti Polar Lipids, Inc., United States) was employed and 21 extrusions were performed through a 0.1 µm filter membrane (Nuclepore track-etched hydrophilic membrane, Cytiva, Whatman, MA, United States), resulting in monodispersed unilamellar liposomes. Directly before use the liposomes were purified from unencapsulated CF by filtration through a gel filtration column (PD Minitrap G-25 column, Cytiva, United States), against PBS buffer (10 mM, pH 7.4).
(§4) Peptide and lipopeptide activity towards liposome models were evaluated using a carboxyfluorescein (CF) release assay. Liposomes were diluted in PBS (10 mM, pH 7.4) to a final lipid concentration of 25 µM and incubated with peptides (10^–5–10^2 µM) in a 96-well plate (n = 3). CF release was monitored using an Infinite M1000 PRO plate reader every 2.5 min for 1 h. Full (100%) CF release was obtained by addition of 1% Triton X-100 solution followed by 10 min incubation. CF release percentage was evaluated according to the formula 100 * (F − F0)/(FT − F0), where F indicates the instantaneous fluorescence, FT the total fluorescence and F0 the background fluorescence prior to peptide addition. Data were fitted to a Hill-1 curve using MATLAB R2019a (The MathWorks Inc., Natick, Massachusetts, United States) and the half maximum effective concentration (EC50) was extracted.

[4] = Carboxyfluorescein release assay, mammalian liposome model; type: biochemical; conditions: 65:5:30 POPC:POPS:Chol. liposomes, 25 µM lipid, 10 mM PBS pH 7.4, 10^–5–10^2 µM peptide, 60 min, fluorescence, Hill fit, n = 3; read-out: EC50 Mammalial (concentration that triggers 50% CF release)
Experimental: as §3, §4

[5] = tested on: S. aureus (ATCC 29213); type: cell-based; conditions: Table 6; ATCC 29213; checkerboard assay, 50:50 PBS/LB-broth, 200 µL
Experimental: as §2, with “Two-fold serial dilutions of the lipopeptides were used, and the final concentrations ranged from 0.19 to 100 µM.” left out, “Synergy was defined as FIC/FBC ≤ 0.5, additive when 0.5 < FIC/FBC ≤ 1, indifferent when 1 < FIC/FBC < 2 and antagonistic when FIC/FBC ≥ 2.” left out

[6] = Table 3, K-12 MG1655, broth microdilution, 50:50 PBS/LB-broth, 200 µL, 20 h, 37 °C
[7] = Table 3, ATCC 29213, broth microdilution, 50:50 PBS/LB-broth, 200 µL, 20 h, 37 °C

Row | Molecule | E. coli MBC ([1]; K-12, 20 h) [µM] | E. coli MIC ([1]; K-12, 20 h) [µM] | S. aureus MBC ([2]; ATCC 29213, 20 h) [µM] | S. aureus MIC ([2]; ATCC 29213, 20 h) [µM] | EC50 [3] [nM] | EC50 [4] [nM] | also measured
1 | CCCC(=O)N[C@@H](CC(C)C)C(=O)NCC(=O)N[C@H](C(=O)N[C@@H](CCCCN)C(=O)N[C@H](C(=O)N[C@@H](CC(C)C)C(=O)N[C@@H](Cc1c[nH]c2ccccc12)C(=O)N[C@@H](CO)C(=O)N[C@@H](C)C(=O)N[C@@H](Cc1ccc(O)cc1)C(=O)N[C@@H](CCCCN)C(=O)N[C@@H](Cc1c[nH]cn1)C(=O)N[C@@H](CCCNC(=N)N)C(=O)N[C@@H](CCCCN)C(=O)N[C@H](C(=O)N[C@H](C(N)=O)[C@@H](C)CC)[C@@H](C)O)[C@@H](C)CC)[C@@H](C)CC [L-6-C4] (Butyryl-LGIKILWSAYKHRKTI-NH2) | 25 | 12.5 | 25 | 12.5 | 110 | > 10000 | 
2 | CCCCCCCCCC(=O)N[C@@H](CC(C)C)C(=O)NCC(=O)N[C@H](C(=O)N[C@@H](CCCCN)C(=O)N[C@H](C(=O)N[C@@H](CC(C)C)C(=O)N[C@@H](Cc1c[nH]c2ccccc12)C(=O)N[C@@H](CO)C(=O)N[C@@H](C)C(=O)N[C@@H](Cc1ccc(O)cc1)C(=O)N[C@@H](CCCCN)C(=O)N[C@@H](Cc1c[nH]cn1)C(=O)N[C@@H](CCCNC(=N)N)C(=O)N[C@@H](CCCCN)C(=O)N[C@H](C(=O)N[C@H](C(N)=O)[C@@H](C)CC)[C@@H](C)O)[C@@H](C)CC)[C@@H](C)CC [L-6-C10] (Decanoyl-LGIKILWSAYKHRKTI-NH2) | > 100 | > 100 | > 100 | 50 | 1100 | 680 | 
3 | Ac-WSAYKH-NH2 [S5] | > 100 | > 100 | > 100 | > 100 |  |  | 
4 | CN[C@H](CC(C)C)C(=O)N[C@H]1C(=O)N[C@@H](CC(N)=O)C(=O)N[C@H]2C(=O)N[C@H]3C(=O)N[C@H](C(=O)N[C@H](C(=O)O)c4cc(O)cc(O)c4-c4cc3ccc4O)[C@H](O)c3ccc(c(Cl)c3)Oc3cc2cc(c3O[C@@H]2O[C@H](CO)[C@@H](O)[C@H](O)[C@H]2O[C@H]2C[C@](C)(N)[C@H](O)[C@H](C)O2)Oc2ccc(cc2Cl)[C@H]1O [Vancomycin] |  |  |  |  |  |  | S. aureus MBC, antibiotic alone [5]: 0.78 µg/mL; S. aureus MIC, antibiotic alone [5]: 0.78 µg/mL
5 | SVPTSVYTLGIKILWSAYKHRKTIEKSFNKGFYH [PLNC8 β, reference compound] |  |  |  |  | 20 | 1260 | E. coli MIC ([1]; Table 2, K-12 MG1655, broth microdilution, 50:50 PBS/LB-broth, 200 µL, 20 h, 37 °C): > 100 µM; E. coli MBC ([1]; Table 2, K-12 MG1655, broth microdilution, 50:50 PBS/LB-broth, 20 h, 37 °C, 10 µl drops on LB-agar): > 100 µM; E. coli MBC [1, 6]: > 100 µM; S. aureus MBC ([2]; Table 2, ATCC 29213, broth microdilution, 50:50 PBS/LB-broth, 20 h, 37 °C, 10 µl drops on LB-agar): > 100 µM; S. aureus MIC ([2]; Table 2, ATCC 29213, broth microdilution, peptide in PBS, bacteria in LB-broth, 200 µL, 50:50 PBS/broth, ~5 × 10^5 CFU/ml, 20 h, 37 °C, repeated at least three times): > 100 µM; S. aureus MBC [2, 7]: > 100 µM; S. aureus MIC [2, 7]: > 100 µM; CF release ([3]; bacterial-mimicking liposomes, peptide 100 pM, after 60 min of incubation): ~ 20%
6 | PEG800-LGIKILWSAYKHRKTI [L-6-Peg800] |  |  |  |  |  |  | E. coli MBC [1, 6]: > 100 µM; E. coli MIC [1, 6]: > 100 µM; S. aureus MBC [2, 7]: > 100 µM; S. aureus MIC [2, 7]: > 100 µM
7 | Ac-KILWSAYKHR-NH2 [S1] | > 100 | > 100 | > 100 | > 100 |  |  | 
8 | Ac-LWSAYKHR-NH2 [S3] | > 100 | > 100 | > 100 | > 100 |  |  | 
9 | CCCCCCCCCCCCCCC(=O)N[C@@H](CC(C)C)C(=O)NCC(=O)N[C@H](C(=O)N[C@@H](CCCCN)C(=O)N[C@H](C(=O)N[C@@H](CC(C)C)C(=O)N[C@@H](Cc1c[nH]c2ccccc12)C(=O)N[C@@H](CO)C(=O)N[C@@H](C)C(=O)N[C@@H](Cc1ccc(O)cc1)C(=O)N[C@@H](CCCCN)C(=O)N[C@@H](Cc1c[nH]cn1)C(=O)N[C@@H](CCCNC(=N)N)C(=O)N[C@@H](CCCCN)C(=O)N[C@H](C(=O)N[C@H](C(N)=O)[C@@H](C)CC)[C@@H](C)O)[C@@H](C)CC)[C@@H](C)CC [L-6-C15] (Pentadecanoyl-LGIKILWSAYKHRKTI-NH2) | > 100 | > 100 | > 100 | > 100 | 19400 | 870 | 
10 | Ac-ILWSAYKHR-NH2 [S2] | > 100 | > 100 | > 100 | > 100 |  |  | 
11 | CCCCCCCC(=O)N[C@@H](CC(C)C)C(=O)NCC(=O)N[C@H](C(=O)N[C@@H](CCCCN)C(=O)N[C@H](C(=O)N[C@@H](CC(C)C)C(=O)N[C@@H](Cc1c[nH]c2ccccc12)C(=O)N[C@@H](CO)C(=O)N[C@@H](C)C(=O)N[C@@H](Cc1ccc(O)cc1)C(=O)N[C@@H](CCCCN)C(=O)N[C@@H](Cc1c[nH]cn1)C(=O)N[C@@H](CCCNC(=N)N)C(=O)N[C@@H](CCCCN)C(=O)N[C@H](C(=O)N[C@H](C(N)=O)[C@@H](C)CC)[C@@H](C)O)[C@@H](C)CC)[C@@H](C)CC [L-6-C8] (Octanoyl-LGIKILWSAYKHRKTI-NH2) | 12.5 | 12.5 | 3.1 | 3.1 | 190 | 940 | 
12 | Ac-WSAYKHR-NH2 [S4] | > 100 | > 100 | > 100 | > 100 |  |  | 
13 | Ac-WSAYK-NH2 [S6] | > 100 | > 100 | > 100 | > 100 |  |  | 
